# Where two headings read alike, the source gives them in different places.
# What was measured:
# Assay type in all cases: in vivo, human
# [1] = test system: patient with HIT with thrombosis
# Text: A person experienced pregnancy-induced hypertension and sudden weight gain during the third trimester of pregnancy. Premature labor led to the delivery of twins at 31 weeks gestation. After delivery, the patient remained hypertensive. On post-partum day 7, they awoke with chest pain and shortness of breath. They were lethargic with a blood pressure of 190/96 mm Hg and heart rate 135 beats per minute.
# On postpartum day 10, the patient was transferred to another hospital for left hemiparesis. A non-hemorrhagic right cerebral infarction was confirmed by computed tomography. During days 4 to 7 of heparin therapy, platelet counts fluctuated between 163×10^9/L and 99×10^9/L with no clear downward trend. A platelet count was not obtained on day 8. However, on day 9 of heparin therapy, the patient's right leg became ischemic and their platelet count decreased to 34×10^9/L. HIT was suspected and heparin was immediately discontinued. The patient was taken to the operating room and Fogerty balloon thrombectomy of the right superficial and profunda arteries removed a typical red, fleshy acute thrombus. The clinical diagnosis of HIT with thrombosis was confirmed by the detection of heparin/PF4 antibodies in the patient's day 9 serum (but not in their serum from day 3) using an in-vitro functional test, the serotonin release assay (SRA).
# An alternative anticoagulant was needed for further treatment of their pulmonary embolism and to prevent further thrombosis of the right femoral artery. The direct thrombin inhibitor Argatroban was initiated at 2 mcg/kg/min and titrated to achieve an activated partial thromboplastin time (aPTT) of 1.5 to 3.0 times the patient's baseline aPTT value.
# After 6 days of Argatroban monotherapy and recovery of the platelet count to >100×10^9/L, warfarin was initiated concomitantly. Warfarin was started at the expected daily dose of 5 mg. On the 4th day of concomitant therapy, Argatroban infusion was held for 4 hours (to eliminate the effects of Argatroban on the INR) and the INR was rechecked to assure a therapeutic INR on warfarin alone. The INR was 2.1, which is considered therapeutic for the underlying medical condition, so the Argatroban was discontinued.
# [2] = test system: patient with HIT with thrombosis (HITT); experiment: Example 1 patient case: Argatroban monotherapy in HIT with thrombosis, serial platelet counts
# Description: The patient is a person with a history of hypertension and hyperlipidemia who presented to the emergency department (ED) complaining of chest pain. […] The patient was admitted to the Coronary Care Unit and was treated with aspirin, intravenous nitroglycerin, metoprolol, and intravenous heparin. The platelet count on admission was 212×10^9/L. Serial cardiac enzymes and troponin concentrations were negative for a myocardial infarction. […] Coronary artery bypass grafting was performed 2 days later with an uneventful postoperative course. They were discharged from the hospital 7 days after the surgery in good condition and their platelet count was 136×10^9/L. One week later, the patient returned to the ED complaining of the acute onset of a cold and painful swollen left leg. Their medications included aspirin 325 mg daily, metoprolol 75 mg twice daily, NitroDur 20 mg daily and atorvastatin 20 mg daily. The physical examination was normal with the exception of mild hypertension and a cold, swollen left leg with blue discoloration from the knee down. In addition, the left popliteal pulse was faint and the left ankle pulse was non-palpable. […] Intravenous heparin was started and the patient was sent to the operating room for emergency surgery. A femoro-popliteal bypass was performed with a graft and there was an initial return of arterial blood flow to the lower leg. However, before the incision was closed, the graft re-occluded. The graft was opened and explored with an embolectomy catheter. A large amount of whitish granular material was found and subsequently removed from the distal end of the graft. Pulses returned to the lower leg and the incision was closed. By the time the closure was complete, the graft had again re-occluded. The finding of a platelet-rich “white clot” during this surgery along with thrombocytopenia alerted physicians to suspect HIT with thrombosis (HITT). Heparin was immediately discontinued and the DTI Argatroban was initiated (at 2 mcg/kg/min) that evening (day 1 of Argatroban). On the following day, the patient's left lower leg remained cold, blue and pulseless. They were transferred to another hospital where an amputation was performed. Argatroban was continued for 10 days. The platelet count began improving with the following serial platelet counts: 62×10^9/L on day 4, 78×10^9/L on day 6, 110×10^9/L on day 8 and 180×10^9/L on day 10. The patient was measured for a prosthetic leg and they underwent intense physical therapy for 6 months.
# [3] = test system: patient with HIT with thrombosis; experiment: Example 3 patient case: Argatroban with transition to warfarin, avoiding warfarin-induced skin necrosis and venous limb gangrene
# Text: The following patient case is an example of an appropriate transition to warfarin, because Argatroban therapy is continued for at least 5 days and until the patient's platelet count has recovered to >100×10^9/L. In addition, concomitant therapy with Argatroban and warfarin overlaps for at least 4-5 days.
# A person presented to the hospital with an acute myocardial infarction, for which they received tissue plasminogen activator and heparin. Their platelet count was 190×10^9/L on admission. They underwent coronary artery bypass grafting several days later, and heparin was continued throughout the peri-operative period. Postoperatively, the patient experienced atrial fibrillation, and warfarin was initiated. Four days postoperatively, they developed pain and discoloration of the left breast and right leg. The platelet count was 60×10^9/L and the INR was 6.1. Unfortunately, the breast and leg lesions progressed rapidly and the patient ultimately required a mastectomy and below the knee amputation. Five weeks later, they were readmitted with upper extremity swelling. The platelet count was 126×10^9/L on readmission. Ultrasound confirmed axillary/subclavian and femoral venous thromboses, for which heparin therapy was re-initiated. The platelet count fell from 126×10^9/L to 26×10^9/L after 3 days of intravenous heparin, and the diagnosis of HIT with thrombosis was made. The patient's initial breast and leg lesions are examples of warfarin-induced skin necrosis and venous limb gangrene, respectively, which are possible clinical manifestations of HIT. The patient was started on Argatroban 2 mcg/kg/min and the dose was titrated to maintain aPTT values between 1.5 and 3 times their baseline aPTT. […] Argatroban was continued for 11 days. On day 6 of Argatroban therapy, warfarin was initiated at the estimated daily dose of 5 mg. At that time, the platelet count was 150×10^9/L. Concomitant therapy with Argatroban and warfarin was continued for […] in accordance with the recommended overlap of 4 to 5 days. On the 5th day of concomitant therapy, the Argatroban was held for 6 hours and the INR value reflecting warfarin therapy alone was checked. The INR was 2.9 and the Argatroban infusion was subsequently discontinued. • See e.g.: • Warkentin T E, Elavathil L J, Hayward C P M, et al. The pathogenesis of venous limb gangrene associated with heparin-induced thrombocytopenia. Ann Intern Med. 1997; 127:804-812. • Smythe M A, Warkentin T E, Stephens J L, et al. Venous limb gangrene during overlapping therapy with warfarin and a direct thrombin inhibitor for immune heparin-induced thrombocytopenia. Am J Hematol 2002; 71:50-52. • Srinivasan A F, Rice L, Bartholomew J R, et al. Warfarin-induced skin necrosis and venous limb gangrene in the setting of heparin-induced thrombocytopenia. […]
# patients with HIT = experiment: Clinical trial of 304 patients with HIT with or without thrombosis who received argatroban; outcome by platelet count on day of argatroban cessation
# Text: In a clinical trial of 304 patients with HIT with or without thrombosis who received argatroban, 165 patients with active HIT had platelet count data available for the day of argatroban cessation. […] Therefore, we recommend these approaches for refining the existing method of therapy in patients with HIT receiving Argatroban.
compound,measurement,setting,value
CC1CNc2c(cccc2S(=O)(=O)N[C@@H](CCCNC(=N)N)C(=O)N2CC[C@@H](C)C[C@@H]2C(=O)O)C1 (stereo partly shown) [Argatroban],recovery of the platelet count,[1]; after 6 days of Argatroban monotherapy,> 1e+11 L⁻¹
same,platelet count,"[1]; hospital day 10, day 2 of Argatroban therapy, 34 × 10^9/L prior to initiation",5.5e+10 L⁻¹
same,platelet count,"[1]; hospital day 13, day 5 of Argatroban therapy",1.1e+11 L⁻¹
same,platelet count,"[1]; hospital day 14, day 6 of Argatroban therapy",1.6e+11 L⁻¹
same,platelet count,"[1]; hospital day 16, day 8 of Argatroban therapy (warfarin concomitant)",1.49e+11 L⁻¹
same,platelet count,"[1]; hospital day 18, day 10 of Argatroban therapy (warfarin concomitant)",2.1e+11 L⁻¹
same,platelet count,"[1]; hospital day 20, day 12 of Argatroban therapy",2.8e+11 L⁻¹
same,platelet count,"[2]; day 4 of Argatroban, initiated at 2 mcg/kg/min, 41×10^9/L before",6.2e+10 L⁻¹
same,platelet count,[2]; day 6 of Argatroban,7.8e+10 L⁻¹
same,platelet count,[2]; day 8 of Argatroban,1.1e+11 L⁻¹
same,platelet count,[2]; day 10 of Argatroban,1.8e+11 L⁻¹
same,platelet count,"[3]; day 6 of Argatroban therapy, when warfarin was initiated, 26×10^9/L before Argatroban",1.5e+11 L⁻¹
same,"patients who experienced the composite endpoint of either death, amputation or new thrombosis",patients with HIT; 41 patients with platelet count <100×10^9/L on the day argatroban therapy was discontinued,61%
same,"patients who experienced the composite endpoint of either death, amputation or new thrombosis",patients with HIT; 124 patients with platelet count >100×10^9/L on the day argatroban therapy was discontinued,31.5%
heparin,platelet count,"[1]; human, in vivo",3.4e+10 L⁻¹
same,platelet count,"[3]; human, in vivo, iv",2.6e+10 L⁻¹
CC(=O)CC(c1ccccc1)c1c(O)c2ccccc2oc1=O (stereo not shown) [warfarin],INR on warfarin alone,"[1]; warfarin 5 mg daily, 4th day of concomitant therapy, Argatroban infusion held for 4 hours",2.1
same,INR,"[3]; four days postoperatively, warfarin initiated during heparin exposure, onset of skin necrosis and venous limb gangrene, platelet count 60×10^9/L",6.1
same,INR value reflecting warfarin therapy alone,"[3]; warfarin 5 mg daily, 5th day of concomitant therapy, Argatroban held for 6 hours",2.9

# Source: patent publication US20060198836A1, “Method of treating hit patients with argatroban” (Smithkline Beecham Corporation, priority 2003, published 2006)
